From patent publication US9834571B2, “Compounds for inhibiting cell proliferation in EGFR-driven cancers” (ARIAD Pharmaceuticals, Inc., priority 2012, dated 2017) come the findings set out here.

For assay [1], the target named is T1, BaF3 cells expressing the target EGFR mutations (Homo sapiens, UniProt P00533, T790M, cells depend on it, form not given).
T1 construct: IC50, BAF3 EGFR DEL T790M PURO POOL; other: BAF3 EGFR DEL T790M PURO POOL cells, MTT; other: BAF3 EGFR DEL T790M PURO POOL cells; MTT
Put plainly: Antiproliferative activity (MTT) against BaF3 cells expressing the target EGFR mutations. The assay is classed as cell-based. The note with it: BAF3 EGFR DEL T790M PURO POOL cells, read-out: IC50, BAF3 EGFR DEL T790M PURO POOL. Summed up: (§1)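 Growth inhibition of EGFR-mutant BaF3 cells was assessed with an MTT assay. A BaF3 line expressing wildtype EGFR served as comparator.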

Assay [2] addresses T2, BaF3 cells expressing the target EGFR mutations (Homo sapiens, UniProt P00533, T790M/L858R, cells depend on it).
T2 construct: IC50, BAF3 EGFR L858R-T790M PURO POOL; other: BAF3 EGFR L858R-T790M PURO POOL cells, MTT; IC50, BAF3 EGFR L858R-T790M PURO POOL; other: BAF3 EGFR L858R-T790M PURO POOL cells; MTT
The assay is described as above. The format is cell-based. The note with it: BAF3 EGFR L858R-T790M PURO POOL cells, read-out: IC50, BAF3 EGFR L858R-T790M PURO POOL. The essentials:
as §1

In assay [3] the test system is BaF3 cells expressing wildtype EGFR. Put plainly: Antiproliferative activity (MTT) against control BaF3 cells expressing wildtype EGFR. The format is cell-based. The note with it: Mus musculus, BAF3 PARENTAL cells (control). The essentials:
as §1

Assay [4] concerns the target EGFR L858R/T790M (Homo sapiens, UniProt P00533, L858R/T790M). Put plainly: Kinase inhibitory activity against EGFR bearing the L858R/T790M double mutation. The assay is classed as biochemical. The note with it: EGFR L858R/T790M double mutation; 10 μM ATP; read-out: IC50 for kinase inhibition, EGFR L858R T790M. The essentials:
(§2)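 Ten-point dose-response curves were run in singlicate from a 3 μM top concentration, with ATP at 10 μM.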

Assay [5] deals with human EGFR (native sequence) (Homo sapiens, UniProt P00533). Put plainly: Kinase inhibitory activity against human EGFR (native sequence). The assay is classed as biochemical. The following applies: human EGFR native sequence; 10 μM ATP; read-out: IC50 for kinase inhibition, EGFR. Summed up: as §2
In assay [6] the target is EGFR L858R (Homo sapiens, UniProt P00533, L858R). Put plainly: Kinase inhibitory activity against EGFR bearing the L858R mutation. The format is biochemical. The note with it: EGFR L858R; 10 μM ATP; read-out: IC50 for kinase inhibition, EGFR L858R. Summed up:
as §2

T1 sequence (P00533 with tags, fused parts or gaps DEL746-750/T790M, form open): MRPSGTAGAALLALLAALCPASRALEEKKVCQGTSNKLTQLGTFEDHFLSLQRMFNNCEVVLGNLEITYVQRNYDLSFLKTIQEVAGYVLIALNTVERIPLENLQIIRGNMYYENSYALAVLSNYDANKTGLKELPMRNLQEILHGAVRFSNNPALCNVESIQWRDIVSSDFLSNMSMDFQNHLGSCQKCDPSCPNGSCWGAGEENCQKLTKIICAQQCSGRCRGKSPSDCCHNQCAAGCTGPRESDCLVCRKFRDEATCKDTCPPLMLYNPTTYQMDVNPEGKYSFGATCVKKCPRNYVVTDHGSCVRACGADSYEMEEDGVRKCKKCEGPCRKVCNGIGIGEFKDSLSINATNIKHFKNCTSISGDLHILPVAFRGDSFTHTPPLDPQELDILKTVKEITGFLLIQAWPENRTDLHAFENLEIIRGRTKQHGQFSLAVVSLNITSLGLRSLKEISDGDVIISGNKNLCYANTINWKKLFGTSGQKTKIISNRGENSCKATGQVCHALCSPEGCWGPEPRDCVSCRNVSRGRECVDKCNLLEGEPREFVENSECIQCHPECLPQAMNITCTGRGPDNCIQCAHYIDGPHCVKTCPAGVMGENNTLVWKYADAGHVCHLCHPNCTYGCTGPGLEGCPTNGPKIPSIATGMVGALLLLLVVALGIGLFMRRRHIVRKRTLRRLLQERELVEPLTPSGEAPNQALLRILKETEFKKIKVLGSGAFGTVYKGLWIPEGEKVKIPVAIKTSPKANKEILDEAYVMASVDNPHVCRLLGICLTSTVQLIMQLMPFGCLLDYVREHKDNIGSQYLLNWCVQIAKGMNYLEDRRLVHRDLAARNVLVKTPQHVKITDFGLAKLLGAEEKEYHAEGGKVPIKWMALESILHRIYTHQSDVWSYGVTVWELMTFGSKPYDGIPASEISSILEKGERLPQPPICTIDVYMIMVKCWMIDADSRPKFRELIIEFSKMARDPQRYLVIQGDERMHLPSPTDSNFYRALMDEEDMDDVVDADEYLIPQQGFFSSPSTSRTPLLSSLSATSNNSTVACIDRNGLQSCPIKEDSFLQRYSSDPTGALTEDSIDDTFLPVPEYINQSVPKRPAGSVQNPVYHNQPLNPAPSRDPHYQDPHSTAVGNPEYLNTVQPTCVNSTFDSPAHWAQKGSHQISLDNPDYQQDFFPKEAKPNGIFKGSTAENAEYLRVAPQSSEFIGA
T2 sequence (P00533 whole entry T790M/L858R): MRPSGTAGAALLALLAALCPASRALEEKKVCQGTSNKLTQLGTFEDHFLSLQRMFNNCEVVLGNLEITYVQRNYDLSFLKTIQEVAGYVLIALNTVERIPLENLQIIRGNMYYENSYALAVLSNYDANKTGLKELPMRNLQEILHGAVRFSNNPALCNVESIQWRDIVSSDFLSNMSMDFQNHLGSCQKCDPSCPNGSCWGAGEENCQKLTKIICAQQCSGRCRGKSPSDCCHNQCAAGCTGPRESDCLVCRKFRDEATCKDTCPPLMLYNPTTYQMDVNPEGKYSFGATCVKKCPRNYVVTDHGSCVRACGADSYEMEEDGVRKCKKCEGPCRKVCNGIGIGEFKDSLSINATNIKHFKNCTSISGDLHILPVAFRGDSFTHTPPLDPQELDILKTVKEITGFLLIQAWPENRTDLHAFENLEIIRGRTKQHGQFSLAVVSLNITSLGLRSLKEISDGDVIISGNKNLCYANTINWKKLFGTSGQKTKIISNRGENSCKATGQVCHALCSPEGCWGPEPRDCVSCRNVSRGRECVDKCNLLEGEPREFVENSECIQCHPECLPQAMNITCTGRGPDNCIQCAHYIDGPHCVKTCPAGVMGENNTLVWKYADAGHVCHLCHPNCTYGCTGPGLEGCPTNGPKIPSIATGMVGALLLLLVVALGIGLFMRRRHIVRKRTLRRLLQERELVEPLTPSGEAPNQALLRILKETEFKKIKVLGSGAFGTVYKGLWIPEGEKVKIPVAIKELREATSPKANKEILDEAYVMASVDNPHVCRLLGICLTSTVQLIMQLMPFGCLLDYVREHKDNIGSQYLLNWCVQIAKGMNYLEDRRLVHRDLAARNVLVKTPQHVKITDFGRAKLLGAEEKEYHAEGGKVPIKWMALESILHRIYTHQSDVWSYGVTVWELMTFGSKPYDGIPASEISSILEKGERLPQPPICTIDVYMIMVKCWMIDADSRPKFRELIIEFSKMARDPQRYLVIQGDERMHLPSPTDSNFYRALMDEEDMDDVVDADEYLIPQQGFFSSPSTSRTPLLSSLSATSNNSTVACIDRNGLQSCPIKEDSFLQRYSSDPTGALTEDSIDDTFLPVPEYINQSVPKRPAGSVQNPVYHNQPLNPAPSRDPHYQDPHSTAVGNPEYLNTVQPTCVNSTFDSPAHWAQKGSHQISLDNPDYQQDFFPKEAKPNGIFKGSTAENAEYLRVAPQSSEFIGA
Chain of EGFR L858R (P00533 25-1210 L858R): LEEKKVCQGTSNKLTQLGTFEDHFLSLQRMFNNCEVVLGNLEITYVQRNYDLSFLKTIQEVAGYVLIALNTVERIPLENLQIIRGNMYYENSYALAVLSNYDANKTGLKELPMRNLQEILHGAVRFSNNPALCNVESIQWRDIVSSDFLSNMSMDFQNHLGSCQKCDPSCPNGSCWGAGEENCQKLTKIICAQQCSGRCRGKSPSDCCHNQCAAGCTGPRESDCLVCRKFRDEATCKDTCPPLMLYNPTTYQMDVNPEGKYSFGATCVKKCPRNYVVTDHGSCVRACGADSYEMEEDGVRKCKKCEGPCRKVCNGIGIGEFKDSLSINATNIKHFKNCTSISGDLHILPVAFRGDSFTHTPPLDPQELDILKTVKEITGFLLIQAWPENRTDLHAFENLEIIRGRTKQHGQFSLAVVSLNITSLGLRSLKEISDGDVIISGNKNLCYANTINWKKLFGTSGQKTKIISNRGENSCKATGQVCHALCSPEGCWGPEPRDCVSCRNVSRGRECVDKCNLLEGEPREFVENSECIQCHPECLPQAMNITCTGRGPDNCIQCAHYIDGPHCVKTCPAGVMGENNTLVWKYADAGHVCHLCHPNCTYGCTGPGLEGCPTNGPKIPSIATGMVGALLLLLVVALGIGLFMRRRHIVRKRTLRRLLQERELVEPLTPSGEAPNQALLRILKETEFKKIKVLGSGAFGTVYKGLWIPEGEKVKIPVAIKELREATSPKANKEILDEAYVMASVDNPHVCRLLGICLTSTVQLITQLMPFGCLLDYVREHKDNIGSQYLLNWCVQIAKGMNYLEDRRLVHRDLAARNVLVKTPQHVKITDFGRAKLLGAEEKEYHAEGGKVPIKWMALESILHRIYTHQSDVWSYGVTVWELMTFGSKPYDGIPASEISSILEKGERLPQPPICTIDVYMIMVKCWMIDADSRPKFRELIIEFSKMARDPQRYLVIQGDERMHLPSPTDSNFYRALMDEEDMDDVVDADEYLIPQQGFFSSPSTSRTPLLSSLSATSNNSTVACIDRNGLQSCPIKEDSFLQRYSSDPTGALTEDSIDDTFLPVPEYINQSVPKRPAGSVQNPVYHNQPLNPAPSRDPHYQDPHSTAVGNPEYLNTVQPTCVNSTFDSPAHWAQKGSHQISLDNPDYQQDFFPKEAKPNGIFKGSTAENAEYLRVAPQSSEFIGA
Chain of EGFR L858R/T790M (P00533 25-1210 T790M/L858R): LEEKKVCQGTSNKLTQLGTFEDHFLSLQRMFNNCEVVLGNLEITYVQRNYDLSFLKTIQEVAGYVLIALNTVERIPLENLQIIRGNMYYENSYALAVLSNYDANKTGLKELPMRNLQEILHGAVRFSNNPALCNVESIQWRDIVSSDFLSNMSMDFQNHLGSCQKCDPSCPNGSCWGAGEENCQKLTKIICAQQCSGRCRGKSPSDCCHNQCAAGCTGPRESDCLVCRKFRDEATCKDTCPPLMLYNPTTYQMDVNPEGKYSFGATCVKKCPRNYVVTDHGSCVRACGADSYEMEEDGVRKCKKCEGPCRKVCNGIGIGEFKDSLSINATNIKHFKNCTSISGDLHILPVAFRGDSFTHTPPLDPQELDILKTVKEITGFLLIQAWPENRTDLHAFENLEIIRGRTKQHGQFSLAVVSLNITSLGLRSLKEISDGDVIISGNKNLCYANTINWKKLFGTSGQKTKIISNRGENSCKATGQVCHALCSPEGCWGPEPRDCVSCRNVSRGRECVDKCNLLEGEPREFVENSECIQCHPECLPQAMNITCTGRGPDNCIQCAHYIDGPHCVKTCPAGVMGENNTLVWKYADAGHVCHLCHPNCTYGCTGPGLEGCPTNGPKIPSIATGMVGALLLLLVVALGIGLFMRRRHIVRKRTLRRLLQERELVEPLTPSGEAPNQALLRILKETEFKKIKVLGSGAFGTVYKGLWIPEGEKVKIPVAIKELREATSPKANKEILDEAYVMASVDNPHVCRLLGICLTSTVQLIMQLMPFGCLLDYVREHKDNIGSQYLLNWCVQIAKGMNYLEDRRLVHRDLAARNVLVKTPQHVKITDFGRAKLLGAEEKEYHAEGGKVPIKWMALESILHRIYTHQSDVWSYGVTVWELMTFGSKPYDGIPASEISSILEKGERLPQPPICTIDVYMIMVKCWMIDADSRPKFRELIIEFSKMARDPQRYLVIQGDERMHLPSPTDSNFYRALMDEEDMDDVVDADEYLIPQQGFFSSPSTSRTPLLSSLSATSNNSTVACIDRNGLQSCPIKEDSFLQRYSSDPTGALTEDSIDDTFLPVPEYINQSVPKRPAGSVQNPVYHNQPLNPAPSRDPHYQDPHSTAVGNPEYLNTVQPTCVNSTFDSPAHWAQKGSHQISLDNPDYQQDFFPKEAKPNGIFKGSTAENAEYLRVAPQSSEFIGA

Take `C=CC(=O)Nc1cc(Nc2ncc(Cl)c(Nc3ccccc3P(C)(C)=O)n2)c(OC)cc1N1CCC(N(C)CCOC)C1` (stereo not drawn) [Example 41, N-(5-((5-chloro-4-((2-(dimethylphosphoryl)phenyl)amino)pyrimidin-2-yl)amino)-4-methoxy-2-(3-((2-methoxyethyl)(methyl)amino)pyrrolidin-1-yl)phenyl)acrylamide]: the GI50 in assay [1] and in assay [2] was under 50 nM in each case. Moreover, the IC50 was at least 250 nM in assay [3], under 50 nM in assay [4], under 50 nM in assay [5] and under 50 nM in assay [6].
As for `C=C(CN1CCCC1)C(=O)Nc1ccc(OC)c(Nc2ncc(Cl)c(Nc3ccccc3P(C)(C)=O)n2)c1` [Example 42, N-(3-((5-chloro-4-((2-(dimethylphosphoryl)phenyl)amino)pyrimidin-2-yl)amino)-4-methoxyphenyl)-2-(pyrrolidin-1-ylmethyl)acrylamide], the GI50 in assay [1] and in assay [2] was under 50 nM throughout. Further, the IC50 is at least 250 nM in assay [3], under 50 nM in assay [4], under 50 nM in assay [5] and under 50 nM in assay [6].
Take `C=C(CN1CCCCC1)C(=O)Nc1ccc(OC)c(Nc2ncc(Cl)c(Nc3ccccc3P(C)(C)=O)n2)c1` [Example 43, N-(3-((5-chloro-4-((2-(dimethylphosphoryl)phenyl)amino)pyrimidin-2-yl)amino)-4-methoxyphenyl)-2-(piperidin-1-ylmethyl)acrylamide]: the GI50 in assay [1] and in assay [2] was under 50 nM in each case. For the same molecule, the IC50 in assay [3] is at least 250 nM; in assay [4], under 50 nM; in assay [5], under 50 nM; in assay [6], under 50 nM.
For `C=C(CN1CCN(S(C)(=O)=O)CC1)C(=O)Nc1ccc(OC)c(Nc2ncc(Cl)c(Nc3ccccc3P(C)(C)=O)n2)c1` [Example 44, N-(3-((5-chloro-4-((2-(dimethylphosphoryl)phenyl)amino)pyrimidin-2-yl)amino)-4-methoxyphenyl)-2-((4-(methylsulfonyl)piperazin-1-yl)methyl)acrylamide], the GI50 in assay [1] and in assay [2] was under 50 nM in each case. Besides, the IC50 was at least 250 nM in assay [3], under 50 nM in assay [4], under 50 nM in assay [5] and under 50 nM in assay [6].
Turning to `C=C(CN1CCC(N2CCN(C)CC2)CC1)C(=O)Nc1ccc(OC)c(Nc2ncc(Cl)c(Nc3ccccc3P(C)(C)=O)n2)c1` [Example 45, N-(3-((5-chloro-4-((2-(dimethylphosphoryl)phenyl)amino)pyrimidin-2-yl)amino)-4-methoxyphenyl)-2-((4-(4-methylpiperazin-1-yl)piperidin-1-yl)methyl)acrylamide], the GI50 in assay [1] and in assay [2] was under 50 nM in each case. Further, the IC50 in assay [3] is at least 250 nM; in assay [4], under 50 nM; in assay [5], under 50 nM; in assay [6], under 50 nM.
Consider `C=C(CN1CCS(=O)(=O)CC1)C(=O)Nc1ccc(OC)c(Nc2ncc(Cl)c(Nc3ccccc3P(C)(C)=O)n2)c1` [Example 46, N-(3-((5-chloro-4-((2-(dimethylphosphoryl)phenyl)amino)pyrimidin-2-yl)amino)-4-methoxyphenyl)-2-((1,1-dioxidothiomorpholino)methyl)acrylamide], for which the GI50 in assay [1] and in assay [2] was at least 250 nM each time. Besides, the IC50 is at least 250 nM in assay [3], under 50 nM in assay [4], at least 250 nM in assay [5] and 50 to 100 nM in assay [6].
As for `C=C(CN1CCNC(=O)C1)C(=O)Nc1ccc(OC)c(Nc2ncc(Cl)c(Nc3ccccc3P(C)(C)=O)n2)c1` [Example 47, N-(3-((5-chloro-4-((2-(dimethylphosphoryl)phenyl)amino)pyrimidin-2-yl)amino)-4-methoxyphenyl)-2-((3-oxopiperazin-1-yl)methyl)acrylamide], the GI50 is 101 to 250 nM in assay [1] and at least 250 nM in assay [2]. In addition, the IC50 in assay [3] is at least 250 nM; in assay [4], under 50 nM; in assay [5], under 50 nM; in assay [6], under 50 nM.
For `C=C(CN1CCOCC1)C(=O)Nc1ccc(OC)c(Nc2ncc(Cl)c(Nc3ccccc3P(C)(C)=O)n2)c1` [Example 48, N-(3-((5-chloro-4-((2-(dimethylphosphoryl)phenyl)amino)pyrimidin-2-yl)amino)-4-methoxyphenyl)-2-(morpholinomethyl)acrylamide], the GI50 in assay [1] and in assay [2] was under 50 nM in each case. The IC50 in assay [3] was at least 250 nM; in assay [4], under 50 nM; in assay [5] it was under 50 nM; in assay [6] it was under 50 nM.
Take `C=C(CN1CCN(C)CC1)C(=O)Nc1ccc(OC)c(Nc2ncc(Cl)c(Nc3ccccc3P(C)(C)=O)n2)c1` [Example 49, N-(3-((5-chloro-4-((2-(dimethylphosphoryl)phenyl)amino)pyrimidin-2-yl)amino)-4-methoxyphenyl)-2-((4-methylpiperazin-1-yl)methyl)acrylamide]: the GI50 in assay [1] and in assay [2] was under 50 nM in each case. Also, the IC50 is at least 250 nM in assay [3], under 50 nM in assay [4], under 50 nM in assay [5] and under 50 nM in assay [6].
Consider `C=C(CN1CCN(C(C)C)CC1)C(=O)Nc1ccc(OC)c(Nc2ncc(Cl)c(Nc3ccccc3P(C)(C)=O)n2)c1` [Example 50, N-(3-((5-chloro-4-((2-(dimethylphosphoryl)phenyl)amino)pyrimidin-2-yl)amino)-4-methoxyphenyl)-2-((4-isopropylpiperazin-1-yl)methyl)acrylamide], for which the GI50 in assay [1] and in assay [2] was under 50 nM throughout. In addition, the IC50 in assay [3] was at least 250 nM; in assay [4] it was under 50 nM; in assay [5] it was 50 to 100 nM; in assay [6], under 50 nM.
Turning to `C=C(CN1CCC(N2CCOCC2)CC1)C(=O)Nc1ccc(OC)c(Nc2ncc(Cl)c(Nc3ccccc3P(C)(C)=O)n2)c1` [Example 51, N-(3-((5-chloro-4-((2-(dimethylphosphoryl)phenyl)amino)pyrimidin-2-yl)amino)-4-methoxyphenyl)-2-((4-morpholinopiperidin-1-yl)methyl)acrylamide], the GI50 in assay [1] and in assay [2] was under 50 nM each time. The IC50 in assay [3] is at least 250 nM; in assay [4] it was under 50 nM; in assay [5], under 50 nM; in assay [6], under 50 nM.
Regarding `C=C(CN1CCN(CCO)CC1)C(=O)Nc1ccc(OC)c(Nc2ncc(Cl)c(Nc3ccccc3P(C)(C)=O)n2)c1` [Example 52, N-(3-((5-chloro-4-((2-(dimethylphosphoryl)phenyl)amino)pyrimidin-2-yl)amino)-4-methoxyphenyl)-2-((4-(2-hydroxyethyl)piperazin-1-yl)methyl)acrylamide], the GI50 in assay [1] and in assay [2] was under 50 nM each time. The IC50 in assay [3] was at least 250 nM; in assay [4] it was under 50 nM; in assay [5], under 50 nM; in assay [6], under 50 nM.
On to `C=C(CN1CCC(O)C1)C(=O)Nc1ccc(OC)c(Nc2ncc(Cl)c(Nc3ccccc3P(C)(C)=O)n2)c1` (stereo not drawn) [Example 53, N-(3-((5-chloro-4-((2-(dimethylphosphoryl)phenyl)amino)pyrimidin-2-yl)amino)-4-methoxyphenyl)-2-((3-hydroxypyrrolidin-1-yl)methyl)acrylamide], for which the GI50 in assay [1] and in assay [2] was under 50 nM throughout. The IC50 in assay [3] is at least 250 nM; in assay [4] it was under 50 nM; in assay [5], under 50 nM; in assay [6] it was under 50 nM.
For `C=CC(=O)Nc1cc(Nc2ncc(Cl)c(Nc3ccccc3P(C)(C)=O)n2)c(OC)cc1CN1CCN(C)CC1` [Example 55, N-(5-((5-chloro-4-((2-(dimethylphosphoryl)phenyl)amino)pyrimidin-2-yl)amino)-4-methoxy-2-((4-methylpiperazin-1-yl)methyl)phenyl)acrylamide], the GI50 in assay [1] was under 50 nM; in assay [2] it was 50 to 100 nM. The IC50 in assay [3] was at least 250 nM; in assay [4], under 50 nM; in assay [5], under 50 nM; in assay [6] it was under 50 nM.
`C=CC(=O)Nc1cc(Nc2ncc(Cl)c(Nc3ccccc3P(C)(C)=O)n2)c(OC)cc1C(=O)N1CCN(C)CC1` [Example 56, N-(5-((5-chloro-4-((2-(dimethylphosphoryl)phenyl)amino)pyrimidin-2-yl)amino)-4-methoxy-2-(4-methylpiperazine-1-carbonyl)phenyl)acrylamide]: the GI50 in assay [1] and in assay [2] was at least 250 nM throughout. Moreover, the IC50 was at least 250 nM in assay [3], under 50 nM in assay [4], 101 to 250 nM in assay [5] and under 50 nM in assay [6].

In general, IC50 refers to the point on the concentration scale where inhibition reaches its midpoint.
